For data set [1], the system named is Staphylococcus aureus. The data set is described as follows: Antibacterial activity against hospital-acquired methicillin-resistant Staphylococcus aureus ATCC 33592 incubated for 72 hrs. The following applies: ATCC 33592, 72 h. Format: functional.
The subject of a further data set is Escherichia coli. Put plainly: Antibacterial activity against Escherichia coli MC4100 incubated for 72 hrs. The settings on record: str. K-12 substr. MC4100, 72 h. Format: functional.
The next data set relates to Enterococcus faecalis. Put plainly: Antibacterial activity against Enterococcus faecalis OG1RF incubated for 72 hrs. Format: functional.
Data set [2] relates to Staphylococcus aureus. Put plainly: Antibacterial activity against methicillin-susceptible Staphylococcus aureus SH1000 incubated for 72 hrs. The following applies: SH1000, 72 h. Type of data set: functional.
A short description of data set [3]: Stability of the compound in pure water by LCMS method. Type of data set: physicochemical.
In another data set the test system is Pseudomonas aeruginosa. Put plainly: Antibacterial activity against Pseudomonas aeruginosa PAO1 incubated for 72 hrs. Type of data set: functional. The settings on record: PAO1, 72 h.
Data set [4] in a line: Ratio of MIC for community acquired methicillin-resistant Staphylococcus aureus USA300-0114 to HC20 for sheep RBC assessed as compound concentration required for <20% hemolysis.
Data set [5] concerns Staphylococcus aureus. The data set is described as follows: Antibacterial activity against community acquired methicillin-resistant Staphylococcus aureus USA300-0114 incubated for 72 hrs. The following applies: USA300-0114, 72 h. Format: functional.
Data set [6] can be described thus: Solubility of the compound in buffer solution at pH 10 by LCMS analysis. Type of data set: physicochemical.
The nature of data set [7]: Stability in buffer solution at pH 10 after 16 hrs by LCMS analysis. Format: physicochemical. The settings on record: read-out: Stability.
The nature of data set [8]: Stability in buffer solution at pH 7 after 16 hrs by LCMS analysis. Type of data set: physicochemical. The settings on record: read-out: Stability.
The nature of data set [9]: Stability in buffer solution assessed as decomposition at pH 10 by LCMS analysis. Format: physicochemical.
Data set [10] in a line: Stability of the compound in pure water up to 72 hrs by LCMS analysis. Type of data set: physicochemical. The settings on record: read-out: Stability.
The nature of data set [11]: Ratio of MIC for Enterococcus faecalis OG1RF to HC20 for sheep RBC assessed as compound concentration required for <20% hemolysis.
Data set [12] can be described thus: Half life at pH 7 buffer solution by LCMS method.
The nature of data set [13]: Stability in buffer solution assessed as decomposition at pH 4 by LCMS analysis. Type of data set: physicochemical.

`CCCCCCCCCCCCCCOC(=O)C[N+](C)(C)CCC[N+](C)(CCC[N+](C)(C)CC(=O)OCCCCCCCCCCCCCC)CC(=O)OCCCCCCCCCCCCCC.[Br-].[Br-].[Br-]`: the MIC in the data set on Staphylococcus aureus [1] was found to be 32 µM; in the data set on Escherichia coli, 63 µM; in the data set with Enterococcus faecalis, 32 µM; against Staphylococcus aureus [2], 63 µM; against Pseudomonas aeruginosa, 250 µM; in the data set on Staphylococcus aureus [5], 16 µM. In [3], the Stability entry is on record as “Stable”. Also, the Ratio in data set [4] is 4.

In the case of `CCCCCCCCCCNC(=O)C[N+](C)(C)CCN1CC[N+](C)(CC(=O)NCCCCCCCCCC)CC1.[Br-].[Br-]`, the MIC stood at 0.5 µM with Staphylococcus aureus [1]; 1 µM in the data set with Escherichia coli; 0.5 µM in the data set on Enterococcus faecalis; 0.5 µM against Staphylococcus aureus [2]; 2 µM against Pseudomonas aeruginosa; 0.5 µM with Staphylococcus aureus [5]. Also, the solubility entry in data set [6] was “Insoluble”. Besides, the remaining at 16 h in data set [7] and in data set [8] was above 80% in each case. Besides, the Stability entry in data set [9] is “Unstable”. Also, the remaining at 72 h in [10] is at least 90%.

For the compound `CCCCCCCCCCCCCCOC(=O)C[N+](C)(C)CCCN(CCC[N+](C)(C)CC(=O)OCCCCCCCCCCCCCC)CCC[N+](C)(C)CC(=O)OCCCCCCCCCCCCCC.[Br-].[Br-].[Br-]`, the MIC was determined as 32 µM against Staphylococcus aureus [1]; 32 µM against Escherichia coli; 16 µM in the data set with Enterococcus faecalis; 125 µM with Staphylococcus aureus [2]; 250 µM with Pseudomonas aeruginosa; 16 µM in the data set with Staphylococcus aureus [5]. Further, the Ratio in [11] and in data set [4] was 4 each time. Besides, the Stability entry in [3] is recorded as “Stable”.

With `CCCCCCCCOC(=O)C[N+](C)(C)CCC[N+](C)(CCC[N+](C)(C)CC(=O)OCCCCCCCC)CC(=O)OCCCCCCCC.[Br-].[Br-].[Br-]`, the MIC was 8 µM against Staphylococcus aureus [1]; 16 µM with Escherichia coli; 16 µM against Enterococcus faecalis; 8 µM against Staphylococcus aureus [2]; 32 µM in the data set on Pseudomonas aeruginosa; 8 µM against Staphylococcus aureus [5]. In data set [3], the Stability result is on record as “Stable”.

With `CCCCCCOC(=O)C[N+](C)(C)CCC[N+](C)(CCC[N+](C)(C)CC(=O)OCCCCCC)CC(=O)OCCCCCC.[Br-].[Br-].[Br-]`, the MIC against Staphylococcus aureus [1] was 250 µM; in the data set with Escherichia coli it was above 250 µM; in the data set on Enterococcus faecalis it was 250 µM; in the data set on Staphylococcus aureus [2] it was 250 µM; against Pseudomonas aeruginosa, above 250 µM; against Staphylococcus aureus [5], 125 µM. Also, in data set [3], the Stability entry is listed as “Stable”.

For `CCCCCCCCOC(=O)C[N+](C)(C)Cc1ccccc1.[Br-]`, the MIC in the data set with Staphylococcus aureus [1] is 125 µM; against Escherichia coli, 250 µM; against Enterococcus faecalis, 250 µM; against Staphylococcus aureus [2], 125 µM; against Pseudomonas aeruginosa, above 250 µM; in the data set on Staphylococcus aureus [5], 250 µM. For the same compound, the Stability result in [3] is “Stable”.

For the compound `CCCCCCCCOC(=O)C[N+](C)(C)CCN1CC[N+](C)(CC(=O)OCCCCCCCC)CC1.[Br-].[Br-]`, the MIC against Staphylococcus aureus [1] was 63 µM; in the data set on Escherichia coli, 250 µM; in the data set on Enterococcus faecalis, 63 µM; in the data set with Staphylococcus aureus [2] it was above 250 µM; in the data set on Pseudomonas aeruginosa, above 250 µM; with Staphylococcus aureus [5] it was 32 µM. Further, the Stability result in data set [3] is “Stable”.

Take `CCCCCCCCCCOC(=O)C[N+](C)(C)CCN1CC[N+](C)(CC(=O)OCCCCCCCCCC)CC1.[Br-].[Br-]`: the MIC in the data set on Staphylococcus aureus [1] came out at 2 µM; against Escherichia coli, 2 µM; with Enterococcus faecalis, 4 µM; in the data set with Staphylococcus aureus [2], 2 µM; with Pseudomonas aeruginosa, 16 µM; against Staphylococcus aureus [5], 2 µM. The Stability result in [9] and in data set [13] was “Unstable” in each case. Moreover, the T1/2 in data set [12] is 3 h. In [10], the remaining at 72 h is at least 90%.

As to `CCCCCCCCCCOC(=O)C[N+](C)(C)CCCN(CCC[N+](C)(C)CC(=O)OCCCCCCCCCC)CCC[N+](C)(C)CC(=O)OCCCCCCCCCC.[Br-].[Br-].[Br-]`, the MIC against Staphylococcus aureus [1] came out at 4 µM; against Escherichia coli, 8 µM; in the data set on Enterococcus faecalis it was 8 µM; against Staphylococcus aureus [2], 2 µM; with Pseudomonas aeruginosa it was 16 µM; in the data set on Staphylococcus aureus [5] it was 4 µM. The Stability result in [9] and in [13] was “Unstable” each time. In [12], this compound came in with a T1/2 of 3 h. In data set [10], the remaining at 72 h was at least 90%.

As for `CCCCCCCCCCCCOC(=O)C[N+](C)(C)CCCN(CCC[N+](C)(C)CC(=O)OCCCCCCCCCCCC)CCC[N+](C)(C)CC(=O)OCCCCCCCCCCCC.[Br-].[Br-].[Br-]`, the minimum inhibitory concentration (MIC) is 8 µM in the data set on Staphylococcus aureus [1]; 8 µM with Escherichia coli; 8 µM in the data set on Enterococcus faecalis; 4 µM with Staphylococcus aureus [2]; above 250 µM against Pseudomonas aeruginosa; 8 µM in the data set on Staphylococcus aureus [5]. Besides, the Stability result in [3] is given as “Stable”.

Regarding `CCCCCCCCOC(=O)C[N+](C)(C)CCCN(CCC[N+](C)(C)CC(=O)OCCCCCCCC)CCC[N+](C)(C)CC(=O)OCCCCCCCC.[Br-].[Br-].[Br-]`, the MIC in the data set on Staphylococcus aureus [1] stood at 4 µM; against Escherichia coli, 8 µM; with Enterococcus faecalis, 8 µM; against Staphylococcus aureus [2], 2 µM; against Pseudomonas aeruginosa, 63 µM; with Staphylococcus aureus [5] it was 4 µM. Further, the Stability result in [3] is “Stable”.

With `CCCCCCCCCCCCOC(=O)C[N+](C)(C)Cc1ccccc1.[Br-]`, the MIC with Staphylococcus aureus [1] came to 2 µM; in the data set on Escherichia coli, 16 µM; in the data set with Enterococcus faecalis, 4 µM; against Staphylococcus aureus [2] it was 2 µM; against Pseudomonas aeruginosa it was 63 µM; against Staphylococcus aureus [5], 2 µM. For the same compound, in data set [3], the Stability entry is “Stable”.

As to `CCCCCCCCCCNC(=O)C[N+](C)(C)Cc1ccccc1.[Br-]`, the MIC in the data set with Staphylococcus aureus [1] turned out to be 8 µM; against Escherichia coli it was 32 µM; against Enterococcus faecalis, 16 µM; with Staphylococcus aureus [2], 8 µM; against Pseudomonas aeruginosa it was 125 µM; with Staphylococcus aureus [5] it was 8 µM. Also, the Stability entry in [3] is listed as “Stable”.

Consider `CCCCCCCCCCNC(=O)C[N+](C)(C)CCCN(CCC[N+](C)(C)CC(=O)NCCCCCCCCCC)CCC[N+](C)(C)CC(=O)NCCCCCCCCCC.[Br-].[Br-].[Br-]`, for which the MIC turned out to be 1 µM in the data set on Staphylococcus aureus [1]; 1 µM in the data set on Escherichia coli; 1 µM in the data set on Enterococcus faecalis; 1 µM in the data set with Staphylococcus aureus [2]; 8 µM against Pseudomonas aeruginosa; 0.5 µM against Staphylococcus aureus [5]. The solubility result in [6] is listed as “Insoluble”. Moreover, the remaining at 16 h in data set [7] and in data set [8] was above 80% each time. In data set [9], the Stability result is reported as “Unstable”. In addition, the remaining at 72 h in data set [10] is at least 90%.

In the case of `CCCCCCCCCCNC(=O)C[N+](C)(C)CCC[N+](C)(CCC[N+](C)(C)CC(=O)NCCCCCCCCCC)CC(=O)NCCCCCCCCCC.[Br-].[Br-].[Br-]`, the MIC in the data set with Staphylococcus aureus [1] is 2 µM; with Escherichia coli it was 2 µM; with Enterococcus faecalis, 2 µM; in the data set with Staphylococcus aureus [2], 1 µM; against Pseudomonas aeruginosa, 63 µM; in the data set with Staphylococcus aureus [5] it was 1 µM. Further, the Stability result in data set [3] is on record as “Stable”.

Usually MIC stands for the smallest concentration in the dilution series that meets the test's criterion for growth inhibition. Low readings indicate a more susceptible organism, high ones a less susceptible organism.
